Numbered stars: 1 amine (or outer) side, 2 acyl side, 3 side chain; on linkers, the order of the positions; unused ones are H or OH. Square brackets hold non-standard residues; d marks the D form. Peptide text beside a SMILES is read from it. * marks the point of attachment. DOTA = O=C(O)CN1CCN(CC(=O)O)CCN(CC(=O)*)CCN(CC(=O)O)CC1; Gly(N-(3-F-4-Me-benzyl)) = Cc1ccc(CNCC(=O)*)cc1F; Gly(Nα-4-MeO-benzyl) = COc1ccc(CNCC(=O)*)cc1; Butanoyl(4-(4-MePh)) = Cc1ccc(CCCC(=O)*)cc1; Api(1-amidino) = N=C(N)N1CCC(N)(C(=O)O)CC1; X3 = CNC(=N)N1CCC(N[*:1])(C(=O)[*:2])CC1; d2Nal = N[C@H](Cc1ccc2ccccc2c1)C(=O)O; Trx = NC[C@H]1CC[C@H](C(=O)O)CC1; X1 = O=C(CN1CCC(N[*:1])CC1)[*:2]; 4Pal = N[C@@H](Cc1ccncc1)C(=O)O; d4Pal = N[C@H](Cc1ccncc1)C(=O)O; Cha = N[C@@H](CC1CCCCC1)C(=O)O; X5 = O=C(CNCc1ccc2ccccc2c1)*; 4Amb = NCc1ccc(C(=O)O)cc1; Api = NC1(C(=O)O)CCNCC1; PEG2 = NCCOCCOCCC(=O)O; Ahx = NCCCCCC(=O)O; azaGly = NNC(=O)O
molecular target: human kisspeptin receptor (Homo sapiens (Human), UniProt Q969F8); assay: Human KISS1R binding assay (membrane competition binding); details: 90 min at room temperature; competition with 0.2 nM [125I]-metastin (45-54); Flp-In T-Rex 293 kisspeptin membranes; metal complexes nonradioactive Ga, In, Lu; read-out: hKiSSR Binding Ki (90 min)
Sequence (Q969F8 whole entry): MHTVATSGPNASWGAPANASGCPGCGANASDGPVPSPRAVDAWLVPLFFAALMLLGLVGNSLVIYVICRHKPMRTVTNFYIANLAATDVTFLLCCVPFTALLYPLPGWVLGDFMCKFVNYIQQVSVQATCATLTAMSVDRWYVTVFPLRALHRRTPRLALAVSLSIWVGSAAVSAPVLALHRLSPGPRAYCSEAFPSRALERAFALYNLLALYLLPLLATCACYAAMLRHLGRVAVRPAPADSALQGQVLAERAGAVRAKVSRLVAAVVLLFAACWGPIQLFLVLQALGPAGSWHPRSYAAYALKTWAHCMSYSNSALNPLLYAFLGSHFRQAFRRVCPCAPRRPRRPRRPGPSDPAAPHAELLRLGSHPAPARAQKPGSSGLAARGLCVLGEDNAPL
Protocol: Crude membrane fractions are prepared from Flp-In T-Rex 293 (Thermo Fisher) cell line expressing the human kisspeptin receptor. The cells are grown to 85-100% confluence on standard tissue culture dishes in Dulbecco's Modified Eagles Medium (DMEM) (Corning) supplemented with 10% FBS (Gemini), 1% penicillin-streptomycin-glutamine (Gibco), 500 μg/mL hygromycin, and 15 μg/mL blastacidin. 48 hrs prior to preparing membranes 10 μg/ml of tetracycline is added to the culture media to induce receptor expression. To prepare membranes, cells are scraped and collected in 1× Dulbecco's phosphate buffered saline (Corning) and then pelleted at 1000 RPMs. The cell pellet is reconstituted in membrane preparation buffer (20 mM HEPES, 6 mM MgCl2 and 1 mM EGTA, protease inhibitor tablets (Pierce), pH 7.4) and placed in a cell disruption vessel (Parr Instrument company) at 1000 PSI for 30 min on ice. The pressurized contents are then released and spun down at 1000 RPMs and the supernatant is collected and further centrifuged at 15,000 RPMs to pellet the membranes. The membrane pellet is resuspended in membrane preparation buffer, snap frozen and stored at −80° C. for later use.
The human kisspeptin membrane binding assay utilizes the following components: radiolabel [^125I]-metastin (45-54) (human) (Perkinhmer), crude Flp-In T-Rex 293 kisspeptin membranes, and competing small molecule and peptide ligands. The assay is initiated by combining in assay buffer (50 mM TrisHCl, 5 mM MgCl2, 2 mM EGTA, 10 mM CaCl2, 0.1% BSA, pH 7.4) a dose response of competing ligand (final concentrations are typically 0-10,000 nM), 5-10 μg of Flp-In T-Rex 293 kisspeptin membranes, and 0.2 n M [^125I]-metastin (45-54) in a 96-well assay plate and allowed to incubate 90 minutes at room temperature. Assay contents are then filtered through unifilter CF/C: microplates (PerkinElmer) pre-soaked with 0.5% BSA and washed with 9×400 μL of cold wash buffer (10 mM HEPES, 500 mM NaCl, 0.1% Tween-20, pH7.4). Assay plates are read using a Microbeta^2 (PerkinElmer) and Ki values for compounds are determined using a GraphPad Prism 9.3 non-linear regression analysis.

SMILES | Ki
Cc1ccc(CCCC(=O)N[C@H](Cc2ccc(O)cc2)C(=O)N[C@H](Cc2c[nH]c3ccccc23)C(=O)N[C@@H](CC(N)=O)C(=O)N[C@H](C(=O)N[C@@H](Cc2ccccc2)C(=O)NNC(=O)N[C@@H](CC(C)C)C(=O)NC2(C(=O)N[C@@H](Cc3c[nH]c4ccccc34)C(N)=O)CCN(C(=O)CNCc3ccc(C)c(F)c3)CC2)[C@@H](C)O)cc1 [Compound 403] ({Butanoyl(4-(4-MePh))}-[dY][dW]NTF[azaGly]L[Api](Gly(N-(3-F-4-Me-benzyl)))W-NH2) | < 10 nM
Cc1ccc(CNCC(=O)N2CCC(NC(=O)[C@H](CC(C)C)NC(=O)NNC(=O)[C@H](Cc3ccccc3)NC(=O)[C@@H](NC(=O)[C@H](CC(N)=O)NC(=O)[C@@H](Cc3c[nH]c4ccccc34)NC(=O)[C@@H](Cc3ccc(O)cc3)NC(=O)CCOCCOCCNC(=O)CN3CCN(CC(=O)O)CCN(CC(=O)O)CCN(CC(=O)O)CC3)[C@@H](C)O)(C(=O)N[C@@H](Cc3c[nH]c4ccccc34)C(N)=O)CC2)cc1F [Compound 382] ({DOTA-PEG2}-[dY][dW]NTF[azaGly]L[Api](Gly(N-(3-F-4-Me-benzyl)))W-NH2) | < 10 nM
Cc1ccc(CNCC(=O)N2CCC(NC(=O)[C@H](CC(C)C)NC(=O)NNC(=O)[C@H](Cc3ccccc3)NC(=O)[C@@H](NC(=O)[C@H](CC(N)=O)NC(=O)[C@@H](Cc3ccncc3)NC(=O)[C@@H](Cc3ccc(O)cc3)NC(=O)CN3CCC(NC(=O)CN4CCN(CC(=O)O)CCN(CC(=O)O)CCN(CC(=O)O)CC4)CC3)[C@@H](C)O)(C(=O)N[C@@H](Cc3c[nH]c4ccccc34)C(N)=O)CC2)cc1F [Compound 29] ({DOTA}-[X1][dY][d4Pal]NTF[azaGly]L[Api](Gly(N-(3-F-4-Me-benzyl)))W-NH2) | < 10 nM
CC(C)C[C@H](NC(=O)NNC(=O)[C@H](Cc1ccccc1)NC(=O)[C@@H](NC(=O)[C@H](CC(N)=O)NC(=O)[C@@H](Cc1ccc2ccccc2c1)NC(=O)[C@@H](Cc1ccc(O)cc1)NC(=O)CCCCCNC(=O)CN1CCN(CC(=O)O)CCN(CC(=O)O)CCN(CC(=O)O)CC1)[C@@H](C)O)C(=O)NC1(C(=O)N[C@H](Cc2c[nH]c3ccccc23)C(N)=O)CCN(C(=O)CNCc2ccc3ccccc3c2)CC1 [Compound 376] ({DOTA-Ahx}-[dY][d2Nal]NTF[azaGly]L[Api](X5)[dW]-NH2) | 10 to 100 nM
Cc1ccc(CNCC(=O)N2CCC(NC(=O)[C@H](CC(C)C)NC(=O)NNC(=O)[C@H](Cc3ccccc3)NC(=O)[C@H]3CC[C@H](CNC(=O)c4ccc(CNC(=O)CN5CCN(CC(=O)O)CCN(CC(=O)O)CCN(CC(=O)O)CC5)cc4)CC3)(C(=O)N[C@@H](Cc3c[nH]c4ccccc34)C(N)=O)CC2)cc1F [Compound 110] ({DOTA-4Amb-Trx}-F[azaGly]L[Api](Gly(N-(3-F-4-Me-benzyl)))W-NH2) | < 10 nM
Cc1ccc(CNCC(=O)N2CCC(NC(=O)[C@H](CC(C)C)NC(=O)NNC(=O)[C@H](CC3CCCCC3)NC(=O)[C@@H](NC(=O)[C@H](CC(N)=O)NC(=O)[C@@H](Cc3c[nH]c4ccccc34)NC(=O)[C@H](N)Cc3ccc(O)cc3)[C@@H](C)O)(C(=O)N[C@@H](Cc3c[nH]c4ccccc34)C(N)=O)CC2)cc1F [Compound 404] (H-[dY][dW]NT[Cha][azaGly]L[Api](Gly(N-(3-F-4-Me-benzyl)))W-NH2) | < 10 nM
Cc1ccc(CNCC(=O)N2CCC(NC(=O)[C@H](CC(C)C)SCCNC(=O)[C@H](Cc3ccccc3)NC(=O)CCCCCNC(=O)CN3CCN(CC(=O)O)CCN(CC(=O)O)CCN(CC(=O)O)CC3)(C(=O)N[C@@H](Cc3c[nH]c4ccccc34)C(N)=O)CC2)cc1F [Compound 8] | < 10 nM
CSCC[C@H](NC(=O)c1ccc(CNC(=O)CN2CCN(CC(=O)O)CCN(CC(=O)O)CCN(CC(=O)O)CC2)cc1)C(=O)N[C@@H](Cc1c[nH]c2ccccc12)C(=O)N[C@@H](CCCCNC(=O)CCCCC(=O)N[C@@H](CC(N)=O)C(=O)N[C@H](C(=O)N[C@@H](Cc1ccccc1)C(=O)NNC(=O)N[C@@H](CC(C)C)C(=O)NC1(C(=O)N[C@@H](Cc2c[nH]c3ccccc23)C(N)=O)CCN(C(=O)CNCc2ccc(C)c(F)c2)CC1)[C@@H](C)O)C(=O)O [Compound 168] | < 10 nM
COc1ccc(CNCC(=O)N2CCC(NC(=O)[C@H](CC(C)C)NC(=O)NNC(=O)[C@H](Cc3ccccc3)NC(=O)[C@@H](NC(=O)[C@H](CC(N)=O)NC(=O)[C@@H](Cc3c[nH]c4ccccc34)NC(=O)[C@@H](Cc3ccc(O)cc3)NC(=O)CCCCCNC(=O)CN3CCN(CC(=O)O)CCN(CC(=O)O)CCN(CC(=O)O)CC3)[C@@H](C)O)(C(=O)N[C@@H](Cc3ccncc3)C(N)=O)CC2)cc1 [Compound 293] ({DOTA-Ahx}-[dY][dW]NTF[azaGly]L[Api](Gly(Nα-4-MeO-benzyl))[4Pal]-NH2) | < 10 nM
CC(C)C[C@H](NC(=O)NNC(=O)[C@H](Cc1ccccc1)NC(=O)[C@@H](NC(=O)[C@H](CC(N)=O)NC(=O)[C@@H](Cc1ccc2ccccc2c1)NC(=O)[C@@H](Cc1ccc(O)cc1)NC(=O)CCCCCNC(=O)CN1CCN(CC(=O)O)CCN(CC(=O)O)CCN(CC(=O)O)CC1)[C@@H](C)O)C(=O)NC1(C(=O)N[C@@H](Cc2ccccc2)C(N)=O)CCN(C(=N)N)CC1 [Compound 300] ({DOTA-Ahx}-[dY][d2Nal]NTF[azaGly]L[Api(1-amidino)]F-NH2) | < 10 nM
CNC(=N)N1CCC(NC(=O)[C@H](CC(C)C)NC(=O)NNC(=O)[C@H](Cc2ccccc2)NC(=O)[C@@H](NC(=O)[C@H](CC(N)=O)NC(=O)[C@@H](Cc2c[nH]c3ccccc23)NC(=O)[C@@H](Cc2ccc(O)cc2)NC(=O)CCCCCNC(=O)CN2CCN(CC(=O)O)CCN(CC(=O)O)CCN(CC(=O)O)CC2)[C@@H](C)O)(C(=O)N[C@@H](Cc2c[nH]c3ccccc23)C(N)=O)CC1 [Compound 91] ({DOTA-Ahx}-[dY][dW]NTF[azaGly]L[X3]W-NH2) | < 10 nM
CC(C)C[C@H](NC(=O)NNC(=O)[C@H](CC1CCCCC1)NC(=O)[C@@H](NC(=O)[C@H](CC(N)=O)NC(=O)[C@@H](Cc1ccc2ccccc2c1)NC(=O)[C@@H](Cc1ccc(O)cc1)NC(=O)CCCCCNC(=O)CN1CCN(CC(=O)O)CCN(CC(=O)O)CCN(CC(=O)O)CC1)[C@@H](C)O)C(=O)NC1(C(=O)N[C@@H](Cc2c[nH]c3ccccc23)C(N)=O)CCN(C(=N)N)CC1 [Compound 317] ({DOTA-Ahx}-[dY][d2Nal]NT[Cha][azaGly]L[Api(1-amidino)]W-NH2) | < 10 nM
Cc1ccc(CNCC(=O)N2CCC(NC(=O)[C@@H](CC(C)C)NC(=O)NNC(=O)[C@H](Cc3ccccc3)NC(=O)c3ccc(CNC(=O)CN4CCN(CC(=O)O)CCN(CC(=O)O)CCN(CC(=O)O)CC4)cc3)(C(=O)N[C@@H](Cc3c[nH]c4ccccc34)C(N)=O)CC2)cc1F [Compound 260] ({DOTA-4Amb}-F[azaGly][dL][Api](Gly(N-(3-F-4-Me-benzyl)))W-NH2) | 10 to 100 nM
CC(C)C[C@H](NC(=O)NNC(=O)[C@H](Cc1ccccc1)NC(=O)[C@@H](NC(=O)[C@H](CC(N)=O)NC(=O)[C@@H](Cc1ccc2ccccc2c1)NC(=O)[C@H](N)Cc1ccc(O)cc1)[C@@H](C)O)C(=O)NC1(C(=O)N[C@@H](Cc2ccccc2)C(N)=O)CCN(C(=N)N)CC1 [Compound 409] (H-[dY][d2Nal]NTF[azaGly]L[Api(1-amidino)]F-NH2) | < 10 nM
Cc1ccc(CNCC(=O)N2CCC(NC(=O)[C@H](CC(C)C)NC(=O)NNC(=O)[C@H](Cc3ccccc3)NC(=O)[C@@H](NC(=O)[C@H](CC(N)=O)NC(=O)[C@@H](Cc3ccncc3)NC(=O)CCCCCNC(=O)CN3CCN(CC(=O)O)CCN(CC(=O)O)CCN(CC(=O)O)CC3)[C@@H](C)O)(C(=O)N[C@@H](Cc3c[nH]c4ccccc34)C(N)=O)CC2)cc1F [Compound 296] ({DOTA-Ahx}-[d4Pal]NTF[azaGly]L[Api](Gly(N-(3-F-4-Me-benzyl)))W-NH2) | < 10 nM

From patent US20250312499A1, “KISSPEPTIN RECEPTOR (KISS1R) TARGETED THERAPEUTICS AND USES THEREOF” (priority 2024, published 2025)
